The series has as its target T1, CD137 (Homo sapiens, UniProt Q07011).
T1 construct: host or cells: Jurkat reporter cells from the Promega kit, co-cultured with tumour cells (NCI-H292, PC3 or RKO)
Nature of the series: CD137 reporter assay co-culture with RKO tumour cells (PD-L1/CD137 heterotandems). The class given is cell-based. Particulars: Jurkat CD137 reporter cells co-cultured with RKO (PD-L1), 6 h; read-out: Fold Induction over background. As for the experimental part:
Culture medium, referred to as R1 media, is prepared by adding 1% FBS to RPMI-1640 (component of Promega kit CS196005). Serial dilutions of test articles in R1 are prepared in a sterile 96 well-plate. Add 25 μL per well of test articles or R1 (as a background control) to designated wells in a white cell culture plate. Tumour cells* are harvested and resuspended at a concentration of 400,000 cells/mL in R1 media. Twenty five (25) μL/well of tumour cells are added to the white cell culture plate. Jurkat cells (Promega kit CS196005, 0.5 mL) are thawed in the water bath and then added to 5 ml pre-warmed R1 media. Twenty five (25) μL/well of Jurkat cells are then added to the white cell culture plate. Incubate the cells and test articles for 6 h at 37° C., 5% CO2. At the end of 6 h, add 75 μL/well Bio-Glo™ reagent (Promega) and incubate for 10 min before reading luminescence in a plate reader (Clariostar, BMG). The fold change relative to cells alone (Jurkat cells+Cell line used in co-culture) is calculated and plotted in GraphPad Prism as log(agonist) vs response to determine EC50 (nM) and Fold Induction over background (Max).
The tumour cell type used in co-culture for EphA2 is PC3. The tumour cell type used in co-culture for PD-L1 is RKO.
A summary of the fold induction induced by PD-L1/CD137 heterotandem peptides in the CD137 reporter coculture assay with RKO cells is shown in Table 3.
For orientation: In a reporter assay the amount or activity of a reporter protein is the signal.

*1 amine or outer side, *2 acyl side, *3 side chain or, on linkers, in order; H or OH if unused. Where a SMILES comes first, the peptide text is derived from it. Bridges are numbered along the chain shown (N, C = ends). Roman numbers before positions name the chains, in order. [ ]: non-standard residue; d: D form. TATA = O=C(CC[*:1])N1CN(C(=O)CC[*:2])CN(C(=O)CC[*:3])C1; X2 = O=C(CCOCCOCCOCCOCCOCCn1cc(CCC(=O)[*:2])nn1)[*:1]; hArg = N=C(N)NCCCC[C@H](N)C(=O)O; tBuAla = CC(C)(C)C[C@H](N)C(=O)O; Nle = CCCC[C@H](N)C(=O)O

T1 sequence (Q07011 24-255): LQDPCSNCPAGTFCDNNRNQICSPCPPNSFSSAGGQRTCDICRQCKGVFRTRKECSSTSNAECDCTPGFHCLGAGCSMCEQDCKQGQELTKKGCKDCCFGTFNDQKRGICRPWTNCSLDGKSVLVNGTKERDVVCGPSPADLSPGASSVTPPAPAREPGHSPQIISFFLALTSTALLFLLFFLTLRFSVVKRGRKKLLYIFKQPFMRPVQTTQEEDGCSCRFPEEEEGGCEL

Consider `CCCC[C@@H]1NC(=O)[C@H](Cc2ccc(O)cc2)NC(=O)[C@@H]2CCCN2C(=O)[C@H](CC(=O)O)NC(=O)[C@H](C)NC(=O)[C@H](Cc2ccccc2)NC(=O)[C@@H]2CSCCC(=O)N3CN(CN(C3)C(=O)CCSC[C@@H](C(=O)N[C@@H](C)C(N)=O)NC1=O)C(=O)CCSC[C@H](NC(C)=O)C(=O)N[C@@H](CC(C)(C)C)C(=O)N1CCC[C@H]1C(=O)N[C@@H](CCC(=O)O)C(=O)N[C@H](CCCCNC(=O)CCc1cn(CCOCCOCCOCCOCCOCCC(=O)NCCCC[C@@H]3NC(=O)[C@H](CC(C)C)NC(=O)[C@H](CCCCNC(C)=O)NC(=O)[C@H](CCC(N)=O)NC(=O)[C@@H]4CSCCC(=O)N5CN(CN(C5)C(=O)CCSC[C@@H](C(=O)N5CCC[C@H]5C(=O)N[C@@H](CO)C(=O)N[C@@H](Cc5c[nH]cn5)C(N)=O)NC(=O)[C@H](CC(C)C)NC3=O)C(=O)CCSC[C@H](NC(=O)[C@H](CCCCNC(=N)N)NC(=O)[C@H](CC(=O)O)NC(C)=O)C(=O)N[C@@H](CO)C(=O)N[C@@H](C)C(=O)NCC(=O)N[C@@H](Cc3c[nH]c5ccccc35)C(=O)N[C@@H](CC(C)C)C(=O)N[C@@H]([C@@H](C)O)C(=O)N[C@@H](CCSC)C(=O)N4)nn1)C(=O)N1CCC[C@H]1C(=O)N[C@@H](Cc1ccc(O)cc1)C(=O)N2` [BCY12242] (I: Ac-D[hArg]CSAGWLTMCQK(Ac)LKLCPSH-NH2 / II: Ac-C[tBuAla]PE[dK]PYCFADPY[Nle]CA-NH2; linker I:3-I:11-I:17, II:1-II:8-II:15 via TATA; linker I:15-II:5 via X2), for which the fold induction was determined as 13.

For the origin of these results see patent US11332500B2, “Heterotandem bicyclic peptide complexes” (BicycleTx Limited, priority 2019, dated 2022).
